Measurements published in US11091511B2, “Panaxdiol-type ginsenoside derivative, preparation method therefor and use thereof” (ARMY MEDICAL UNIVERSITY, priority 2016, dated 2021).
Marks after values point to notes of the source that are not given here.

Legend:
RAW264.7 cells = assay: RAW264.7 cell survival rate by CCK8 method; type: cell-based, mouse; conditions: compound 10 prnol/L, 0.1% DMSO, CCK8, x ± s, n = 3, normal saline control = 1
Method: In order to further verify the toxicities of the compounds prepared in Examples 1-30 of the present invention, the mouse macrophage cell line RAW264.7 was cultured, and the compounds prepared in Examples 1-30 of the invention were prepared to a concentration of […] using culture medium, wherein the solvent was normal saline, the co-solvent was dimethyl sulfoxide (DMSO, the final concentratoin was 0.1%), and a 0.1% DMSO saline control group was provided. The cell survival rate was determined by CCK8 method. The data were expressed as x±s. SPSS 10.0 line single-factor analysis of variance was performed among groups. The difference was significant when p<0.05.

apoE−/− mice [1] = assay: Atherosclerotic plaque area to total aortic area in apoE-/- mice on high-fat diet (Sudan IV staining); type: in vivo, mouse; conditions: intragastric 15 weeks, compounds 30 mg/(kg·d), simvastatin 10 mg/(kg·d), x ± s, n = 5, saline control 14.67 ± 3.58
Excerpt: The effects of the compounds prepared in Examples 1-30 of the present invention on the percentages of areas of atherosclerotic plaque formation to the area of the entire artery in apoE−/− mice with a high-fat diet and the levels of low-density lipoprotein cholesterol and the levels of high-density lipoprotein, the specific steps are as follows: 1. animals: 160 ten-week-old, healthy and clean-grade apoE−/− mice (purchased from Peking University Experimental Animal Center), males, weight: 22-25 g, were housed in separate cages in a sterile laminar feeding room and fed freely. The mice were fed by a high-fat diet (conventional feed+0.15% cholesterol+21% lard) for 25 weeks, the room temperature was kept at 24° C., relative humidity: 50%, illumination time 7:30-19:30. 2. Grouping, administration method: after 10 weeks of feeding, the animals were divided into the following 32 groups (n=5) by weight in a balanced and random manner, and killed 15 weeks after administration. Normal saline control group: normal saline, intragastric administration. Positive control group: simvastatin 10 mg/(kg·d), intragastric administration. The compound groups prepared in Examples 1-30 of the present invention (30 groups in total): each was intragastric administered 30 mg/(kg·d). (1) Analysis of the area of atherosclerotic plaque and its percentage to total area: after the animals were killed, the aortas were separated, from the roots of the aortas to the terminal bifurcations of the abdominal aortas. After formalin fixation, the aortas were stained with Sudan IV, the red stained parts were the areas of atherosclerotic lesions. The percentage of the area of the lesion area to total area was calculated using Image Pro Plus 5.0 software. Data were expressed as x±s, and SPSS 10.0 line single-factor analysis of variance was performed among groups, a significant difference was indicated when p<0.05.

apoE−/− mice [2] = assay: Blood lipids (LDL-C, HDL-C) in apoE-/- mice on high-fat diet; type: in vivo, mouse; conditions: apoE-/- mice serum, intragastric 15 weeks, compounds 30 mg/(kg·d), simvastatin 10 mg/(kg·d), x ± s; for HDL-C: n = 5, saline control 3.74 ± 0.62; for LDL-C: n = 5, saline control 7.33 ± 1.03
Excerpt: The effects of the compounds prepared in Examples 1-30 of the present invention on the percentages of areas of atherosclerotic plaque formation to the area of the entire artery in apoE−/− mice with a high-fat diet and the levels of low-density lipoprotein cholesterol and the levels of high-density lipoprotein, the specific steps are as follows:
1. animals: 160 ten-week-old, healthy and clean-grade apoE−/− mice (purchased from Peking University Experimental Animal Center), males, weight: 22-25 g, were housed in separate cages in a sterile laminar feeding room and fed freely. The mice were fed by a high-fat diet (conventional feed+0.15% cholesterol+21% lard) for 25 weeks, the room temperature was kept at 24° C., relative humidity: 50%, illumination time 7:30-19:30.
2. Grouping, administration method:
after 10 weeks of feeding, the animals were divided into the following 32 groups (n=5) by weight in a balanced and random manner, and killed 15 weeks after administration.
Normal saline control group: normal saline, intragastric administration.
Positive control group: simvastatin 10 mg/(kg·d), intragastric administration.
The compound groups prepared in Examples 1-30 of the present invention (30 groups in total): each was intragastric administered 30 mg/(kg·d).
(2) Determination of the levels of total cholesterol (TC), low-density cholesterol lipoprotein (LDL-C) and high-density lipoprotein cholesterol (HDL-C): using ROCHE 7060 automatic biochemical analyzer for the determination.
Data were expressed as x±s, and SPSS 10.0 line single-factor analysis of variance was performed among groups, a significant difference was indicated when p<0.05.

TNF-α = assay: Local TNF-α level in the arteries of apoE-/- mice (Millipore liquid phase chip); type: in vivo, mouse; conditions: high-fat diet, intragastric 15 weeks, compounds 30 mg/(kg·d), simvastatin 10 mg/(kg·d), x ± s, n = 5, saline control 25.58 ± 6.44
Excerpt: The effects of the compounds prepared in Examples 1-30 of the present invention on the percentages of areas of atherosclerotic plaque formation to the area of the entire artery in apoE−/− mice with a high-fat diet and the levels of low-density lipoprotein cholesterol and the levels of high-density lipoprotein, the specific steps are as follows: 1. animals: 160 ten-week-old, healthy and clean-grade apoE−/− mice (purchased from Peking University Experimental Animal Center), males, weight: 22-25 g, were housed in separate cages in a sterile laminar feeding room and fed freely. The mice were fed by a high-fat diet (conventional feed+0.15% cholesterol+21% lard) for 25 weeks, the room temperature was kept at 24° C., relative humidity: 50%, illumination time 7:30-19:30. 2. Grouping, administration method: after 10 weeks of feeding, the animals were divided into the following 32 groups (n=5) by weight in a balanced and random manner, and killed 15 weeks after administration. Normal saline control group: normal saline, intragastric administration. Positive control group: simvastatin 10 mg/(kg·d), intragastric administration. The compound groups prepared in Examples 1-30 of the present invention (30 groups in total): each was intragastric administered 30 mg/(kg·d). (3) Determination of TNF-α level: Millipore liquid phase chip method was used for the determination (Mcytomag-70K-3, Mouse Cytokine/Chemokine Magnetic Bead Panel). Data were expressed as x±s, and SPSS 10.0 line single-factor analysis of variance was performed among groups, a significant difference was indicated when p<0.05.

[3] = tested on: RAW264.7 cell-derived foam cells; assay: Formation of RAW264.7 cell-derived foam cells (ox-LDL, oil red O, absorbance 490 nm); type: cell-based, mouse; conditions: 48 hours, model group = 100%, x ± s, n = 3
Method: The effects of the compounds prepared in Examples 1-30 of the present invention on the formation of RAW264.7 cell-derived foam cells, the specific steps are as follows:
1. Cell culture and foam cell model establishment:
RAW264.7 cells were cultured in DMEM culture medium with high glucose level (GIBCO) to a cell concentration of 1×10^6, planted in a 6-well plate, and 60 mg/L of ox-LDL (oxidized modified low-density lipoprotein, Peking Union Medical College) was added, foam cells were obtained after 48 hours of incubation.
2. Grouping and index detection:
The obtained foam cells were divided into 61 groups, 3 well plates were included in one group. After the treatment by adding the drugs (100 μL/well) for 48 hours, the medium was discarded, and after oil red 0 staining, the excess amount of oil red 0 was washed away. The cells were dissolved in isopropanol and the absorbance values were measured at 490 nm. The OD value of the model group was 100%, and the OD value of each group corrected by the number of cells was compared with the model group to obtain the ratio of intracellular lipid content. The larger the value, the more intracellular lipids, the higher the degree of formation of foam cells.
Normal saline control group: normal saline
Low dose groups of the compounds prepared in Examples 1-30 of the present invention:
10 μmol/L (solvents were normal saline).
High dose groups of compounds prepared in Examples 1-30 of the present invention: 30 μmol/L (solvents were normal saline).
Data were expressed as x±s, and SPSS 10.0 line single-factor analysis of variance was performed amoung groups, a significant difference was indicated when p<0.05.

Row | SMILES | Cell Survival Rate (RAW264.7 cells) | Plaque area/total aorta area (%) (apoE−/− mice [1]) | HDL-C (apoE−/− mice [2]) | LDL-C (apoE−/− mice [2]) | TNF-α level (ng/g) (TNF-α) | Foam cell formation (%) ([3]; dose 10 μmol/L) | Foam cell formation (%) ([3]; dose 30 μmol/L)
1 | COC(=O)[C@H](CO)NCCC[C@](C)(OC(C)=O)C1CC[C@]2(C)[C@@H]1C(OC(C)=O)CC1[C@@]3(C)CC[C@H](OC(C)=O)C(C)(C)C3CC[C@]12C (stereo partly drawn) [Compound 22] | 1.03 ± 0.15 | 10.32 ± 2.74 ^a % | 4.29 ± 0.84 ^a mmol/L | 6.31 ± 1.17 mmol/L | 18.14 ± 6.82 ^a ng/g | 76 ± 10 ^a % | 65 ± 14 ^a %
2 | COC(=O)[C@H](CO)NCCC[C@](C)(O[C@H]1O[C@H](COC(C)=O)[C@@H](OC(C)=O)[C@H](OC(C)=O)[C@H]1OC(C)=O)C1CC[C@]2(C)[C@@H]1C(OC(C)=O)CC1[C@@]3(C)CC[C@H](OC(C)=O)C(C)(C)C3CC[C@]12C (stereo partly drawn) [Compound 7] | 0.86 ± 0.01 | 11.02 ± 2.71 ^a % | 4.52 ± 0.46 ^a mmol/L | 5.50 ± 1.82 ^a mmol/L | 17.77 ± 4.63 ^a ng/g | 83 ± 13% | 71 ± 13 ^a %
3 | COC(=O)[C@H](CC(C)C)NCCC[C@](C)(OC(C)=O)C1CC[C@]2(C)[C@@H]1C(OC(C)=O)CC1[C@@]3(C)CC[C@H](OC(C)=O)C(C)(C)C3CC[C@]12C (stereo partly drawn) [Compound 19] | 0.91 ± 0.07 | 8.34 ± 2.41 ^a % | 5.13 ± 0.83 ^a mmol/L | 4.62 ± 1.34 ^a mmol/L | 11.23 ± 3.69 ^a ng/g | 63 ± 18 ^a % | 43 ± 9 ^a %
4 | CC(=O)OC[C@H]1O[C@H](O[C@@](C)(CCC2OC2(C)C)C2CC[C@]3(C)[C@@H]2C(OC(C)=O)CC2[C@@]4(C)CC[C@H](OC(C)=O)C(C)(C)C4CC[C@]23C)[C@H](OC(C)=O)[C@@H](OC(C)=O)[C@@H]1OC(C)=O (stereo partly drawn) [Compound 2] | 0.51 ± 0.08 ^a | 8.27 ± 2.54 ^a % | 5.47 ± 0.91 ^a mmol/L | 5.56 ± 1.24 ^a mmol/L | 13.24 ± 3.71 ^a ng/g | 70 ± 25 ^a % | 64 ± 19%
5 | CC(=O)OC1CC2[C@@]3(C)CC[C@H](OC(C)=O)C(C)(C)C3CC[C@@]2(C)[C@]2(C)CCC([C@](C)(CCC=C(C)C)OC(C)=O)[C@@H]12 (stereo partly drawn) [Compound 16] | 0.88 ± 0.01 | 10.41 ± 2.09 ^a % | 4.12 ± 0.90 ^a mmol/L | 5.18 ± 1.26 ^a mmol/L | 15.94 ± 4.29 ^a ng/g | 81 ± 12% | 72 ± 21 ^a %
6 | COC(=O)[C@H](CC1CNc2ccccc21)NCCC[C@](C)(O[C@H]1O[C@H](COC(C)=O)[C@@H](OC(C)=O)[C@H](OC(C)=O)[C@H]1OC(C)=O)C1CC[C@]2(C)[C@@H]1C(OC(C)=O)CC1[C@@]3(C)CC[C@H](OC(C)=O)C(C)(C)C3CC[C@]12C (stereo partly drawn) [Compound 15] | 0.88 ± 0.04 | 10.22 ± 2.19 ^a % | 4.12 ± 0.82 ^a mmol/L | 6.54 ± 1.36 mmol/L | 16.07 ± 3.67 ^a ng/g | 68 ± 12 ^a % | 56 ± 22 ^a %
7 | CCOC(=O)C(NCCC[C@](C)(O[C@H]1O[C@H](COC(C)=O)[C@@H](OC(C)=O)[C@H](OC(C)=O)[C@H]1OC(C)=O)C1CC[C@]2(C)[C@@H]1C(OC(C)=O)CC1[C@@]3(C)CC[C@H](OC(C)=O)C(C)(C)C3CC[C@]12C)C(=O)OCC (stereo partly drawn) [Compound 11] | 0.84 ± 0.12 | 9.68 ± 3.52 ^a % | 4.93 ± 0.58 ^a mmol/L | 6.59 ± 1.56 mmol/L | 12.33 ± 5.81 ^a ng/g | 72 ± 14 ^a % | 65 ± 15 ^a %
8 | CCOC(=O)C(NCCCCC[C@](C)(OC(C)=O)C1CC[C@]2(C)[C@@H]1C(OC(C)=O)CC1[C@@]3(C)CC[C@H](OC(C)=O)C(C)(C)C3CC[C@]12C)C(C)OCC (stereo partly drawn) [Compound 26] | 0.94 ± 0.05 | 9.78 ± 3.17 ^a % | 4.45 ± 0.62 ^a mmol/L | 6.28 ± 0.84 mmol/L | 16.02 ± 3.11 ^a ng/g | 83 ± 21% | 72 ± 18 ^a %
9 | CCC(C)(C)C(=O)O[C@H]1C[C@@H](C)C=C2C=C[C@H](C)[C@H](CC[C@@H]3C[C@@H](O)CC(=O)O3)[C@H]21 [Simvastatin, simvastatin, reference compound] | – | 7.95 ± 2.03 ^a % | 3.69 ± 0.72 ^a mmol/L | 2.75 ± 1.89 ^a mmol/L | 14.84 ± 3.22 ^a ng/g | – | –
